We go through two compounds from patent publication US9187410B2, “Process for isolating tigecycline and tigecycline made therefrom” (Hovione Inter Limited, priority 2009, dated 2015).

Holding throughout (type): physicochemical
A short description of series [1]: Dynamic Vapour Sorption (DVS) water uptake. Particulars: 25° C. As to the method:
We also have performed Dynamic Vapour Sorption studies (DVS) and these studies have shown that samples of tigecycline isolated by spray drying and by lyophilzation have distinctive hygroscopic behavior. […] The DVS conditions were as follows: temperature-25° C.; equilibrium criteria 0.00% w/w every 10 min; maximum equilibrium time—120 min; start RH—5%; maximum RH—95%; steps—10%. A vapor sorption analyzer (VTI-SGA 100) was used. […] The difference in the water uptake between the two forms increases with RH for most of the isotherm. By RH we mean relative humidity, the amount of water vapor that exists in a gaseous mixture of air and water. At 45% humidity, the spray dried sample takes up 2.9% w/w water and lyophilized sample 3.9% w/w water. At 95% humidity, the difference is even more evident: the spray dried form takes up 22.6% w/w water and the lyophilized form 24.5% w/w water. The form obtained by lyophilization is more hygroscopic than the form obtained by spray drying.

A short description of series [2]: Modulated differential scanning calorimetry (mDSC/DSC) of amorphous tigecycline. Particulars: unstressed sample; for glass transition temperature (Tg): mDSC, 25° C. to 300° C. at 3° C./min. As to the method: The DSC apparatus used was a DSC Q200 from TA Instruments, using the following settings: method—from 25° C. to 300° C. at 3° C./min; modulate +/−0.50° C. every 40 seconds. In addition to a higher Tg value, spray dried tigecycline also crystallizes and melts (after crossing the glass transition) at higher temperature than lyophilized tigecycline. By Tg we mean the critical temperature at which the material changes its behaviour from being ‘glassy’ to being ‘rubbery’. ‘Glassy’ in this context means hard and brittle (and therefore relatively easy to break), while ‘rubbery’ means elastic and flexible.

The nature of series [3]: DSC after fast stress conditions (oven at 100° C. for 24 hours). The conditions noted are these: after 24 hours at 100° C. The procedure:
The DSC apparatus used was a DSC Q200 from TA Instruments, using the following settings: method—from 25° C. to 300° C. at 3° C./min; modulate +/−0.50° C. every 40 seconds. Spray dried tigecycline and lyophilized tigecycline were submitted to fast stress conditions by placing the samples in an oven at 100° C. for 24 hours. The reversible and total flow DSC curves for the stressed samples were then measured and the results are presented in FIG. 4 and FIG. 5 respectively.

As to `CN(C)c1cc(NC(=O)CNC(C)(C)C)c(O)c2c1C[C@H]1C[C@H]3[C@H](N(C)C)C(O)=C(C(N)=O)C(=O)[C@@]3(O)C(O)=C1C2=O` [lyophilized tigecycline, tigecycline], the water uptake is reported as 3.9 % w/w in series [1] (45% humidity, listed as lyophilized sample) and 24.5 % w/w in series [1] (95% humidity, listed as lyophilized form). Besides, in series [2] (listed as lyophilized compound of formula [1]), the “glass transition temperature (Tg)” value was determined as 126 °C.

In series [1] (45% humidity, listed as spray dried sample), `CN(C)c1cc(NC(=O)CNC(C)(C)C)c(O)c2c1C[C@H]1C[C@H]3[C@H](N(C)C)C(O)=C(C(N)=O)C(=O)[C@@]3(O)C(O)=C1C2=O` [spray dried tigecycline, tigecycline] yielded a water uptake of 2.9 % w/w. In series [1] (95% humidity, listed as spray dried form), the water uptake is recorded as 22.6 % w/w. Moreover, the “glass transition temperature (Tg)” value in series [2] (listed as amorphous compound of formula [1] obtained by spray drying) was 129 °C. Further, the crystallisation temperature in series [2] (total heat flow DSC) is ≥ 146 °C. Besides, in series [3], the “crystallization temperature after stress” value was ≥ 154 °C and the “glass transition temperature after stress” value was ≥ 143 °C.
